Test results reported in the NIST ThermoML archive (doi:10.1016/j.tca.2018.10.027).
Values joined by “and” are separate entries in the source; they are usually repeats but may differ in a detail not shown here. Equal entries are not always repeated.

Conditions: Liquid, Calculated from knudsen effusion weight loss

[Ag+].[Br-] [silver bromide]
Conditions	vapor or sublimation pressure
829.9 K	0.000109 kPa [middle of 4 runs]
849.9 K	0.000184 kPa [middle of 4 runs]
869.9 K	0.000316 kPa [middle of 4 runs]
889.9 K	0.00057 kPa and 0.000464 kPa and 0.000529 kPa
890 K	0.000602 kPa
909.9 K	0.000855 kPa and 0.000958 kPa and 0.000842 kPa
910 K	0.001143 kPa
929.9 K	0.001712 kPa [middle of 4 runs]
